Assay: transdermal shaved rat model: delivery of tritiated compound from a gel patch, counted in urine and feces
Format: in vivo, Rats
Conditions: 2.5 cm^2 patch
Excerpt: Rats were anesthetized with N2O/O2 and [sequence] fluorocarbon anesthesia using a metering device (Quantifier VMC Anesthesia Machine, Matrix Media Inc.) The rat's back was carefully shaved using an electric razor the day before the transdermal experiment, and no abrasions in the skin surface were apparent.
Compound was applied to the skin using a Hilltop Chamber® transdermal delivery plastic device, in which the compound was contained in a 3% hydroxypropyl cellulose gel. The device was glued in place using cyanomethacrylate (Superbinder 495, Newark Electronics).
The aqueous formulation was 2% in N-[N-[5-[4-(aminoiminomethyl)phenyl]-1-oxopentyl]-L-α-aspartyl]-L-phenylalanine, monohydrochloride (10 mg N-[N-[5-[4-(aminoiminomethyl)phenyl]-1-oxopentyl]-L-α-aspartyl]-L-phenylalanine, monohydrochloride 0.5 ml gel/2.5 cm^2 patch). […] The amount of compound in a sample was calculated from the number of counts detected and the specific radioactivity of the compound in the patch.
Urine and feces were collected daily after patch application as indicated in the Table I. Counts were combined to achieve the total amount delivered. Urine was counted directly by scintillography (Hionic Fluid, Packard Co., Mark III), while feces, were processed by mechanical mixing in saline followed by oxidization of a dried aliquot to tritiated water in an oxidizer (Oxidizer Machine, Packard).

| Molecule | average amount delivered (urine and feces counts combined for the total amount delivered) [mg] | average amount delivered into the urine (amount calculated from [3H] counts) [mg] |
| --- | --- | --- |
| CCOC(=O)C[C@H](NC(=O)CCCCc1ccc(C(=N)N)cc1)C(=O)N[C@@H](Cc1ccccc1)C(=O)OCC [N-[N-[5-[4-(aminoiminomethyl)phenyl]-1-oxopentyl]-L-α-aspartyl]-L-phenylalanine diethyl ester] | 4.6 ± 1.9 | – |
| N-[N-[5-[4-(aminoiminomethyl)phenyl]-1-oxopentyl]-L-α-aspartyl]-L-phenylalanine, monohydrochloride | – | 48 |

Source: patent EP0729362B1, “TRANSDERMAL COMPOSITION OF N- N- 5- 4-(AMINOIMINOMETHYL)PHENYL]-1-OXOPENTYL]-L-alpha-ASPARTYL]-L-PHENYLALANINE OR ITS ESTERS AND THEIR PHARMACEUTICALLY ACCEPTABLE SALTS” (G.D. SEARLE & CO., priority 1993, dated 1995)
